The IC50 is the concentration that gives 50% inhibition.

Like-named read-outs stand apart in the source and are kept apart here.

The target of assay [1] is T1, focal adhesion kinase (FAK) autophosphorylation at tyrosine 397 in HT29 cells (Homo sapiens, UniProt Q05397).
T1 construct: endogenous in cells; host or cells: HT29
Kind of assay: Cellular testing of FAK inhibitors: FAK autophosphorylation at tyrosine 397 in HT29 cells (Luminex-based assay). The class given is cell-based. Particulars: 30 min serum-free. The procedure:
2. Assay Principle for Celluar Testing of FAK Inhibitors
Cellular activity of focal adhesion kinase (FAK) is determined by the degree of FAK autophosphorylation at tyrosine 397 using a Luminex-based assay. HT29 cells are plated with 30,000 cells per well of a 96-well plate in 100 μl medium (90% DMEM/10% FCS). At the following day, test compounds are added in a serial dilution under serum-free conditions for 30 min. Then, cells were lysed with 90 μl lysis buffer (20 mM Tris/HCl pH 8.0, 150 mM NaCl, 1% NP40, 10% Glycerol, 1% Phosphatase-Inhibitor II, 20 mM […]-Glycerolphosphat, 0.1% Protease-Inhibitor Cocktail III, 0.01% Benzonase) and lysates were cleared by centrifugation through a 96-well filter plate (0.65 μm). Samples were incubated with Luminex-beads which were coupled with an anti-total FAK antibody overnight at 4° C. with under gentle agitation. For detection of phospho-Y397-FAK a phosphospecific antibody and a species specific PE-labeled secondary antibody are added. The amount of phospho-Y397-FAK is determined in a Luminex100 machine measuring 100 events per well within 60 seconds.
Counts from samples treated with a FAK reference inhibitor are subtracted as pharmacological blank. Counts from samples treated with test compounds are calculated as percent of control from solvent treated (0.3% DMSO) samples. IC50 values were determined using AssayExplorer software.

Assay [2] deals with T2, GST-FAK (N-terminal GST fusion with truncated human FAK (376-1052 (end) amino acids)) (Homo sapiens, UniProt Q05397).
T2 construct: truncated human FAK (376-1052 (end) amino acids)
T2 sequence (Q05397 376-1052): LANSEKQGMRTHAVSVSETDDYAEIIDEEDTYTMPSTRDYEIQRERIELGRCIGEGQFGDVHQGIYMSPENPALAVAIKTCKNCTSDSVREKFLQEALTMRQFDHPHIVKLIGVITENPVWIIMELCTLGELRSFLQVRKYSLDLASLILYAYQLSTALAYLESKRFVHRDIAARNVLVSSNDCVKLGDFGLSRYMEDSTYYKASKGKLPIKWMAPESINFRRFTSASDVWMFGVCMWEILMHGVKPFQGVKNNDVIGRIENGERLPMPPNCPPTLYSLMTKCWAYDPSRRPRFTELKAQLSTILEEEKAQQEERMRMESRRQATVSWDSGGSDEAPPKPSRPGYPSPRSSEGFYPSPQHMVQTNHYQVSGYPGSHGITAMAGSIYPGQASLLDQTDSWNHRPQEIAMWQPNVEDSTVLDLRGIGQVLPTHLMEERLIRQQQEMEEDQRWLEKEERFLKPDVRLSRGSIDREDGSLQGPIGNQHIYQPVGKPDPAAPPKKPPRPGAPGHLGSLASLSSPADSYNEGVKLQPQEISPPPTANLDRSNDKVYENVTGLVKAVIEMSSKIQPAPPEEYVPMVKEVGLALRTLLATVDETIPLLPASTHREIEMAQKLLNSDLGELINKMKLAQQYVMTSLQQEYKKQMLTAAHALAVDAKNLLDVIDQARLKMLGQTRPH
Kind of assay: Biochemical enzyme assay for FAK activity (Caliper LC3000 mobility shift). The note with it: 100 uM ATP. The gist of the method: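 Inhibitor dose series in DMSO were incubated 90 min at 25 °C with truncated GST-tagged human FAK (0.067 ng/µl) and FITC-labelled peptide substrate (1 µM), with ATP at 100 µM and FERM peptide at 1 mM (pH 7.5 HEPES). After EDTA quench, phosphorylated and unphosphorylated peptides were resolved electrophoretically. Percent conversion was fitted for IC50.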

Where [3] appears, read: Table 2, phospho-Y397-FAK, read-out: HT-29 IC50.
[4] abbreviates: Table 3, phospho-Y397-FAK, read-out: HT-29 IC50.

T1 sequence (Q05397 whole entry): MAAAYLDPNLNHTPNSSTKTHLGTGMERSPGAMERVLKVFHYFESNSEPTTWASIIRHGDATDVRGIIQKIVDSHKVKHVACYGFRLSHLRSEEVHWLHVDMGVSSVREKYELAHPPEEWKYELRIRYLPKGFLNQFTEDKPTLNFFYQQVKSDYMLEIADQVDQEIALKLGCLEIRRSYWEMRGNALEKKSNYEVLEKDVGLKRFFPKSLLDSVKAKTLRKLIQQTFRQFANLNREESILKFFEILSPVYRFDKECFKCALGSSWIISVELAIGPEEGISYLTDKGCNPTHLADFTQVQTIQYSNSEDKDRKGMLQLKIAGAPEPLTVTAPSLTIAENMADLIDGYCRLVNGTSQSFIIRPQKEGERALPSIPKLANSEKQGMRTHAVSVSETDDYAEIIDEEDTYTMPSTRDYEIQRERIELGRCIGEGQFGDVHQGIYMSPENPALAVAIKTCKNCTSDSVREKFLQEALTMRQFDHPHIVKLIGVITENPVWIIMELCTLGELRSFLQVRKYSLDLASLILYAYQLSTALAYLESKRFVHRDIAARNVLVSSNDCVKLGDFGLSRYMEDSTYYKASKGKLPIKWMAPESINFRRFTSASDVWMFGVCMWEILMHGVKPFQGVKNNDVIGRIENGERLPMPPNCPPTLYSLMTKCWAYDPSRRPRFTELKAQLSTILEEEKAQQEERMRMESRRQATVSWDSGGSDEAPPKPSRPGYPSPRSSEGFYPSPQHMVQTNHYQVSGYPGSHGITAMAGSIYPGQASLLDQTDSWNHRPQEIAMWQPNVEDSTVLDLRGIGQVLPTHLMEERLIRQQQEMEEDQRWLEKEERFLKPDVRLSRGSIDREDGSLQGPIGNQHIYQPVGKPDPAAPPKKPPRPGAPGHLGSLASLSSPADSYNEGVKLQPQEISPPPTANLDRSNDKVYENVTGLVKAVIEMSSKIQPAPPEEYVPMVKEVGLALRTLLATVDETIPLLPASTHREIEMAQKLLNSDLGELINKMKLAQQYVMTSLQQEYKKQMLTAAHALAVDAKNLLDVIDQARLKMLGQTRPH

`CN(C)CCCNc1cc(NCc2ccc(F)cc2F)nc(-c2cncc(C(F)(F)F)c2)n1` [Compound 60, N-(2,4-Difluoro-benzyl)-N′-(3-dimethylamino-propyl)-2-(5-trifluoromethyl-pyridin-3-yl)-pyrimidine-4,6-diamine]: the IC50 in assay [1] (setting [3]) is 1000 to 10000 nM; in assay [2] (Table 2, read-out: FAK IC50), under 100 nM.
As to `FC(F)(F)c1cc(Cl)ccc1CNc1ccnc(-c2cncc(Cl)c2)n1` [Compound 118, 2-(5-Chloropyridin-3-yl)-N-[4-chloro-2-(trifluoromethyl)benzyl]pyrimidin-4-amine], the IC50 in assay [1] (setting [4]) was 1000 to 10000 nM; in assay [2] (Table 3, read-out: FAK IC50), under 100 nM.
Take `Fc1ccc(CNc2ccnc(-c3cncc(Cl)c3)n2)c(C(F)(F)F)c1` [Compound 119, 2-(5-Chloropyridin-3-yl)-N-[4-fluoro-2-(trifluoromethyl)benzyl]pyrimidin-4-amine]: the concentration for half-maximal inhibition (IC50) in assay [1] (setting [4]) is 1000 to 10000 nM; in assay [2] (Table 3, read-out: FAK IC50) it was under 100 nM.
As to `CN(C)CCCCNc1cc(NCc2ccc(F)cc2F)nc(-c2cncc(C(F)(F)F)c2)n1` [Compound 65, N-(2,4-Difluoro-benzyl)-N′-(4-dimethylamino-butyl)-2-(5-trifluoromethyl-pyridin-3-yl)-pyrimidine-4,6-diamine], the IC50 in assay [1] (setting [3]) is over 10000 nM; in assay [2] (Table 2, read-out: FAK IC50), 100 to 1000 nM.
`CC(Nc1ccnc(-c2cncc(Cl)c2)n1)c1ccccc1C(F)(F)F` (stereo not shown) [Compound 124, 2-(5-Chloropyridin-3-yl)-N-{1-[2-(trifluoromethyl)phenyl]ethyl}pyrimidin-4-amine]: the IC50 was 1000 to 10000 nM in assay [1] (setting [4]) and under 100 nM in assay [2] (Table 3, read-out: FAK IC50).
For the compound `O=C1CCCN1CCCNc1cc(NCc2ccc(F)cc2F)nc(-c2cncc(C(F)(F)F)c2)n1` [Compound 57, 1-{3-[6-(2,4-Difluoro-benzylamino)-2-(5-trifluoromethyl-pyridin-3-yl)-pyrimidin-4-ylamino]-propyl}-pyrrolidin-2-one], the IC50 lay in the range of 1000 to 10000 nM in assay [1] (setting [3]) and 100 to 1000 nM in assay [2] (Table 2, read-out: FAK IC50).
In the same order, the values of `NC(=O)C1CCN(C(=O)c2cc(NCc3ccc(F)cc3F)nc(-c3cncc(C(F)(F)F)c3)n2)CC1` [Compound 49, 1-[6-(2,4-Difluoro-benzylamino)-2-(5-trifluoromethyl-pyridin-3-yl)-pyrimidine-4-carbonyl]-piperidine-4-carboxylic acid amide] are 1000 to 10000 nM and under 100 nM.
As for `Nc1ncc(Cl)cc1-c1nccc(NCc2ccccc2C(F)(F)F)n1` [Compound 129, 2-(2-Amino-5-chloropyridin-3-yl)-N-[2-(trifluoromethyl)benzyl]pyrimidin-4-amine], the IC50 is 1000 to 10000 nM in assay [1] (setting [4]) and under 100 nM in assay [2] (Table 3, read-out: FAK IC50).
Consider `CN1CCN(C(=O)CCNC(=O)c2cc(NCc3ccc(F)cc3F)nc(-c3cncc(C(F)(F)F)c3)n2)CC1` [Compound 44, 6-(2,4-Difluoro-benzylamino)-2-(5-trifluoromethyl-pyridin-3-yl)-pyrimidine-4-carboxylic acid [3-(4-methyl-piperazin-1-yl)-3-oxo-propyl]-amide], for which the IC50 is 1000 to 10000 nM in assay [1] (setting [3]) and under 100 nM in assay [2] (Table 2, read-out: FAK IC50).
In the case of `Fc1ccc(CNc2cc(NCCCN3CCOCC3)nc(-c3cncc(C(F)(F)F)c3)n2)c(F)c1` [Compound 58, N-(2,4-Difluoro-benzyl)-N′-(3-morpholin-4-yl-propyl)-2-(5-trifluoromethyl-pyridin-3-yl)-pyrimidine-4,6-diamine], the IC50 in assay [1] (setting [3]) was 1000 to 10000 nM; in assay [2] (Table 2, read-out: FAK IC50), under 100 nM.
As to `Fc1ccc(CNc2ccnc(-c3cncc(Cl)c3)n2)c(F)c1` [Compound 114, 2-(5-Chloropyridin-3-yl)-N-(2,4-difluorobenzyl)pyrimidin-4-amine], the IC50 in assay [1] (setting [4]) was 100 to 1000 nM; in assay [2] (Table 3, read-out: FAK IC50), under 100 nM.
For `CN(C)CCNC(=O)c1cc(NCc2ccc(F)cc2F)nc(-c2cncc(C(F)(F)F)c2)n1` [Compound 148, 6-[(2,4-difluorophenyl)methylamino]-N-(2-dimethylaminoethyl)-2-[5-(trifluoromethyl)-3-pyridyl]pyrimidine-4-carboxamide], the IC50 was 100 to 1000 nM in assay [1] (Table 4, phospho-Y397-FAK, read-out: IC50 HT-29) and under 100 nM in assay [2] (Table 4, read-out: IC50 FAK).
Regarding `O=C(CCNc1cc(NCc2ccc(F)cc2F)nc(-c2cncc(C(F)(F)F)c2)n1)N1CCOCC1` [Compound 63, 3-[6-(2,4-Difluoro-benzylamino)-2-(5-trifluoromethyl-pyridin-3-yl)-pyrimidin-4-ylamino]-1-morpholin-4-yl-propan-1-one], the IC50 in assay [1] (setting [3]) lay within 1000 to 10000 nM; in assay [2] (Table 2, read-out: FAK IC50), 100 to 1000 nM.
In the same order, the values of `O=C(NCCC(=O)N1CCOCC1)c1cc(NCc2ccc(F)cc2F)nc(-c2cncc(C(F)(F)F)c2)n1` [Compound 43, 6-(2,4-Difluoro-benzylamino)-2-(5-trifluoromethyl-pyridin-3-yl)-pyrimidine-4-carboxylic acid (3-morpholin-4-yl-3-oxo-propyl)-amide] are 1000 to 10000 nM and under 100 nM.
In the same order, the values of `CCN(CC)C(=O)CCNc1cc(NCc2ccc(F)cc2F)nc(-c2cncc(C(F)(F)F)c2)n1` [Compound 62, 3-[6-(2,4-Difluoro-benzylamino)-2-(5-trifluoromethyl-pyridin-3-yl)-pyrimidin-4-ylamino]-N,N-diethyl-propionamide] are 1000 to 10000 nM and 100 to 1000 nM.
In the case of `Clc1cncc(-c2nccc(NCc3cccc4nsnc34)n2)c1` [Compound 131, N-(2,1,3-Benzothiadiazol-4-ylmethyl)-2-(5-chloropyridin-3-yl)pyrimidin-4-amine], the IC50 is over 10000 nM in assay [1] (setting [4]) and under 100 nM in assay [2] (Table 3, read-out: FAK IC50).
Regarding `NC(=O)C1CCCN(c2cc(NCc3ccc(F)cc3F)nc(-c3cncc(C(F)(F)F)c3)n2)C1` (stereo not shown) [Compound 55, 1-[6-(2,4-Difluoro-benzylamino)-2-(5-trifluoromethyl-pyridin-3-yl)-pyrimidin-4-yl]-piperidine-3-carboxylic acid amide], the IC50 fell in the range of 1000 to 10000 nM in assay [1] (setting [3]) and 100 to 1000 nM in assay [2] (Table 2, read-out: FAK IC50).
